{"source": "the kinase profiling compilation of Christmann-Franck et al. (2016)", "assay_in_all_cases": "KINOMEscan competition binding", "details_in_all_cases": "compound 10.0 µM", "key": {"[1]": {"biological_target": "MAP3K10 (human) (UniProt Q02779)"}, "[2]": {"biological_target": "PLK4 (human) (UniProt O00444)"}, "[3]": {"biological_target": "BMPR1A (human) (UniProt P36894)"}, "[4]": {"biological_target": "BRSK2 (human) (UniProt Q8IWQ3)"}, "[5]": {"biological_target": "PAK2 (human) (UniProt Q13177)"}, "[6]": {"biological_target": "EPHA5 (human) (UniProt P54756)"}, "[7]": {"biological_target": "CDC42BPG (human) (UniProt Q6DT37)"}, "[8]": {"biological_target": "STK4 (human) (UniProt Q13043)"}, "[9]": {"system": "EGFR (human), P00533 [746-750 del]"}, "[10]": {"biological_target": "EPHA1 (human) (UniProt P21709)"}, "[11]": {"biological_target": "JAK2 JH1 catalytic (human) (UniProt O60674)", "sequence (O60674 whole entry, looked up)": "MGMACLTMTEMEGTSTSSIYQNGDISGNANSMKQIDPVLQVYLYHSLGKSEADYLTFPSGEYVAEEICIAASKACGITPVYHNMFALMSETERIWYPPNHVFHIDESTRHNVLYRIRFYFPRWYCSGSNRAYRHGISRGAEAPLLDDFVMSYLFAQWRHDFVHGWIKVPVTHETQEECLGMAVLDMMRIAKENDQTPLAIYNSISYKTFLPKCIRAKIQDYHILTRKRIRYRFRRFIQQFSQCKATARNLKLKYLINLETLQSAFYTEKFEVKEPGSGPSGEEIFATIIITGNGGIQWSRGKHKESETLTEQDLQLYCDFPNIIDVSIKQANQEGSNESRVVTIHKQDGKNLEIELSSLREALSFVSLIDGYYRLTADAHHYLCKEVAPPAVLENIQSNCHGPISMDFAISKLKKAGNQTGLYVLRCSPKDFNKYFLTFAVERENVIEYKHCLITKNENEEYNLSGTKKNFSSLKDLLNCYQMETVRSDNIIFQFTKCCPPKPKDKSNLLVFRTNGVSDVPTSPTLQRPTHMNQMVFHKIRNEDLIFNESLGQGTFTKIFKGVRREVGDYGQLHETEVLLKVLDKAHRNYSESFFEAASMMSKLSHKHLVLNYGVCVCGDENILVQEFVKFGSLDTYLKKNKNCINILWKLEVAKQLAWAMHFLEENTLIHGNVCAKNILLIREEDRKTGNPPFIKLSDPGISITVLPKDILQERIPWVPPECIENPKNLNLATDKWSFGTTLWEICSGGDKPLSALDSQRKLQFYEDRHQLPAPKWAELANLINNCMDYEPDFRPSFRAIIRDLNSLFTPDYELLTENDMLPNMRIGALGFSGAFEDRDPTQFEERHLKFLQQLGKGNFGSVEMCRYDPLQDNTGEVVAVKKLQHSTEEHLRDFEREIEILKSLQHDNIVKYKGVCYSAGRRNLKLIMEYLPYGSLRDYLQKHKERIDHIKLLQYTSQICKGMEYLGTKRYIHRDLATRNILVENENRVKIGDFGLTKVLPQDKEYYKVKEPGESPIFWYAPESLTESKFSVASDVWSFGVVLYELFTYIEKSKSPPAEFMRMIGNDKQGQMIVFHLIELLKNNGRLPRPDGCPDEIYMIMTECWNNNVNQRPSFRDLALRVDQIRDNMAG"}, "[12]": {"biological_target": "NEK6 (human) (UniProt Q9HC98)"}, "[13]": {"biological_target": "MAPK4 (human) (UniProt P31152)"}, "[14]": {"biological_target": "DDR2 (human) (UniProt Q16832)", "sequence (Q16832 whole entry, looked up)": "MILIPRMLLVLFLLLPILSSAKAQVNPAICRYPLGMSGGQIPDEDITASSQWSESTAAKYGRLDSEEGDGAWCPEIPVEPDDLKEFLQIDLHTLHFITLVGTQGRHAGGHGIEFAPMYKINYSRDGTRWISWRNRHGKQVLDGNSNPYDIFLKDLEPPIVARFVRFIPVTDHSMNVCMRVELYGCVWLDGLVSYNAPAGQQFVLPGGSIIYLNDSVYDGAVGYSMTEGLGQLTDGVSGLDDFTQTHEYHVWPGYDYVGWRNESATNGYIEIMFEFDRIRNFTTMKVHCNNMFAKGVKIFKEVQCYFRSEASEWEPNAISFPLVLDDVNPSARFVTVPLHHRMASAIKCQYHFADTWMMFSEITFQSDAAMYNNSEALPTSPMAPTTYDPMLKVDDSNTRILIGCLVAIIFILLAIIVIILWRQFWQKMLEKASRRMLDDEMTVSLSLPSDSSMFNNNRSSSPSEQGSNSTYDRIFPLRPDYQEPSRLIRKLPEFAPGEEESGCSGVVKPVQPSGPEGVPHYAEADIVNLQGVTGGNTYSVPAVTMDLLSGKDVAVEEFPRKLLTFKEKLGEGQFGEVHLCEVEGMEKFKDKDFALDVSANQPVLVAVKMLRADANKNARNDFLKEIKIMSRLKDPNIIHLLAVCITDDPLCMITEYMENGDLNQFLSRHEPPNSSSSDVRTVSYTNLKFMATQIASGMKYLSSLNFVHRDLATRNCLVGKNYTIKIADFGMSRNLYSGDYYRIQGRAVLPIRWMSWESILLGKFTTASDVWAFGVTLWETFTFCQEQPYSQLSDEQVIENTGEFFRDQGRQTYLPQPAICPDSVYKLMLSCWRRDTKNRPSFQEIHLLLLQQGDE"}, "[15]": {"biological_target": "CDK18 (human) (UniProt Q07002)", "sequence (Q07002 whole entry, looked up)": "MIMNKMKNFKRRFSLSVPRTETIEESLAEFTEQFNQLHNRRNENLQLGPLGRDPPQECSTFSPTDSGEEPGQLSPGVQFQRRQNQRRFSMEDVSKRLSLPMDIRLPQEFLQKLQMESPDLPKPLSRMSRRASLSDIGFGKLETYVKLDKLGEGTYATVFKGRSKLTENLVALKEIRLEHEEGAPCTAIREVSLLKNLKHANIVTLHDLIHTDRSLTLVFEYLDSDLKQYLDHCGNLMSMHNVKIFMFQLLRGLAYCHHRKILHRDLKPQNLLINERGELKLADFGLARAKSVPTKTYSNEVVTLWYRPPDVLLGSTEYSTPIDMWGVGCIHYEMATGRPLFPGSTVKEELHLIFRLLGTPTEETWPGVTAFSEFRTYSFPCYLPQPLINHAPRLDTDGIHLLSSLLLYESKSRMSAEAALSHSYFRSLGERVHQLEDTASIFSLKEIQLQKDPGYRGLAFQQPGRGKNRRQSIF"}, "[16]": {"biological_target": "DMPK (human) (UniProt Q09013)"}, "[17]": {"biological_target": "BMPR1B (human) (UniProt O00238)"}, "[18]": {"biological_target": "MINK1 (human) (UniProt Q8N4C8)"}, "[19]": {"biological_target": "MAPK10 (human) (UniProt P53779)"}, "[20]": {"biological_target": "RIOK3 (human) (UniProt O14730)"}, "[21]": {"biological_target": "ADCK4 (human) (UniProt Q96D53)"}, "[22]": {"system": "FLT3 (human), P36888 [ITD]", "sequence (P36888 whole entry, looked up, change not shown)": "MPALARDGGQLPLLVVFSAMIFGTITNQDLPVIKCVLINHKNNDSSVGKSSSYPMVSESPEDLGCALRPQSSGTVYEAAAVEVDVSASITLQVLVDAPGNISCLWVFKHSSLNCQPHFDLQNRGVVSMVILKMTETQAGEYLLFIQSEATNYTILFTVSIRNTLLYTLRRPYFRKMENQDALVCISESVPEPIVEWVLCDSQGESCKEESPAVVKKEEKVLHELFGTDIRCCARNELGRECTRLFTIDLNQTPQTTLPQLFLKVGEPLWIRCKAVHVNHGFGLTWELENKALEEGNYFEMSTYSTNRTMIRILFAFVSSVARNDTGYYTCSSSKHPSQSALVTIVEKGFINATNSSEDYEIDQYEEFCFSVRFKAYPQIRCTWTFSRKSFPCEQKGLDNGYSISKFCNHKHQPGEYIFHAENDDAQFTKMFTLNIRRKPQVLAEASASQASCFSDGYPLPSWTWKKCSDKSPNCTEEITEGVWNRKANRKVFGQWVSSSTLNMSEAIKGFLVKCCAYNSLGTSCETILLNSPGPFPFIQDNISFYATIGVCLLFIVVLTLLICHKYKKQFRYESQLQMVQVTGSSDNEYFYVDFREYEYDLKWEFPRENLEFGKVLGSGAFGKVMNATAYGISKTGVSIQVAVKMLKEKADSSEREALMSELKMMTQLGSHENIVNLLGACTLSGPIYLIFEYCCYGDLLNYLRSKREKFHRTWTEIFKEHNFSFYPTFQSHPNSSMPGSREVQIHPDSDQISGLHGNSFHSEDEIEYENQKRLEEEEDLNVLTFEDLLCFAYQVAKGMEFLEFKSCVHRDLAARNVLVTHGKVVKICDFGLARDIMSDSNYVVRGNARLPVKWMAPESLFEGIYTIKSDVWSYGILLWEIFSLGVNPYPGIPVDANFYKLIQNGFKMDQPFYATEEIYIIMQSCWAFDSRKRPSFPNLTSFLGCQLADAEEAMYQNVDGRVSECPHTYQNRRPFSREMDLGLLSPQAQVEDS"}, "[23]": {"biological_target": "MAP4K5 (human) (UniProt Q9Y4K4)"}, "[24]": {"biological_target": "NTRK2 (human) (UniProt Q16620)"}, "[25]": {"biological_target": "CDK7 (human) (UniProt P50613)", "sequence (P50613 whole entry, looked up)": "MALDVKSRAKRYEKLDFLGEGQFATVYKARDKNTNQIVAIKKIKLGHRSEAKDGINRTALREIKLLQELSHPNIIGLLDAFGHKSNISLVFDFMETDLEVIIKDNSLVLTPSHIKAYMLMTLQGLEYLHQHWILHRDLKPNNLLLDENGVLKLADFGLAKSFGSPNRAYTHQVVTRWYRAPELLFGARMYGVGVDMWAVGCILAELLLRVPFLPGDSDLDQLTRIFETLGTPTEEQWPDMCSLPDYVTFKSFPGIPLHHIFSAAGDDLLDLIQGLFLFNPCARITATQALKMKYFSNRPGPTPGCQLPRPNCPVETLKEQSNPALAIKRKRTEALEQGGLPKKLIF"}, "[26]": {"biological_target": "EPHA8 (human) (UniProt P29322)"}, "[27]": {"system": "KIT (human), P10721 [D816V]"}, "[28]": {"biological_target": "MST4 (human) (UniProt Q9P289)"}, "[29]": {"biological_target": "TGFBR1 (human) (UniProt P36897)"}, "[30]": {"biological_target": "AAK1 (human) (UniProt Q2M2I8)"}, "[31]": {"biological_target": "RPS6KA6 KD1 (human) (UniProt Q9UK32)"}, "[32]": {"biological_target": "IRAK3 (human) (UniProt Q9Y616)"}, "[33]": {"biological_target": "MERTK (human) (UniProt Q12866)"}, "[34]": {"system": "ABL1 (human), P00519 [Y253F]"}, "[35]": {"system": "RET (human), P07949 [V804M]", "sequence (P07949 whole entry V804M, looked up)": "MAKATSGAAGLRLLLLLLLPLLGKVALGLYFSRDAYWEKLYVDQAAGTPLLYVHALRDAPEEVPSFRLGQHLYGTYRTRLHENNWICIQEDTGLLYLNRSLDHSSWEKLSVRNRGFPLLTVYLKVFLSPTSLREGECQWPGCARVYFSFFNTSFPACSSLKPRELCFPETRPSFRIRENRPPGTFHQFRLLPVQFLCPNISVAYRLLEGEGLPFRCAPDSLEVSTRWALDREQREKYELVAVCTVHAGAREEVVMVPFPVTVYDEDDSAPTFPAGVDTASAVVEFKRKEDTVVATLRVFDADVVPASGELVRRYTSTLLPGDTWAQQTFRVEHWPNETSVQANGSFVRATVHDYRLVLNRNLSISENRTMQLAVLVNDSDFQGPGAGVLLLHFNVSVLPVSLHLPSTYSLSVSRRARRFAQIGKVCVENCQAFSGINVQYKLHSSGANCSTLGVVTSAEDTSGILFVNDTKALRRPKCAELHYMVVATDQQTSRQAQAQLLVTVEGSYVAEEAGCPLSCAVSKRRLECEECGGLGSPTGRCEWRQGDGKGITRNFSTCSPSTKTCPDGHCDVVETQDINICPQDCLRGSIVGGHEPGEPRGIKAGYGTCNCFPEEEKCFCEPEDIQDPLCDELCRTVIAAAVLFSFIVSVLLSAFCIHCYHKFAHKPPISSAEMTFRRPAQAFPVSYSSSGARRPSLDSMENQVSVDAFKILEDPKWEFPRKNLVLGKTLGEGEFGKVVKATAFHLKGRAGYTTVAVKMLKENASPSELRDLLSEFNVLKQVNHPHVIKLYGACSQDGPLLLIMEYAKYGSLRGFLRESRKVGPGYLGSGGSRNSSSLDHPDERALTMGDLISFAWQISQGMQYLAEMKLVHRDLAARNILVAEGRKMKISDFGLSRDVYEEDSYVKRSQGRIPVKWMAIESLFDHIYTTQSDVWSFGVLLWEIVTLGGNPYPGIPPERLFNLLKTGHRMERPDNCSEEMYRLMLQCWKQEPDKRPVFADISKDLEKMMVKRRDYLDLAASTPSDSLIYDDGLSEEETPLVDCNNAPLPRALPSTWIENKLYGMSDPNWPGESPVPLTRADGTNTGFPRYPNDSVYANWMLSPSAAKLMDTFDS"}, "[36]": {"biological_target": "MAP2K4 (human) (UniProt P45985)"}, "[37]": {"biological_target": "ULK2 (human) (UniProt Q8IYT8)"}, "[38]": {"system": "EGFR (human), P00533 [752-759 del]"}, "[39]": {"biological_target": "PRKACB (human) (UniProt P22694)"}, "[40]": {"biological_target": "TSSK1B (human) (UniProt Q9BXA7)"}, "[41]": {"biological_target": "FLT3 (human) (UniProt P36888)", "sequence (P36888 whole entry, looked up)": "as the sequence (P36888 whole entry, looked up, change not shown) above"}, "[42]": {"biological_target": "CHEK1 (human) (UniProt O14757)"}}, "data": [{"compound": "CCN1CCN(Cc2ccc(NC(=O)c3ccc(C)c(/C=C/c4cnc(Nc5cc(N6CCNCC6)nc(C)n5)cn4)c3)cc2C(F)(F)F)CC1", "values": [{"measurement": "kinase still bound, per cent of control", "setting": "[1]", "value": 30, "unit": "%"}, {"measurement": "kinase still bound, per cent of control", "setting": "[2]", "value": 92, "unit": "%"}, {"measurement": "kinase still bound, per cent of control", "setting": "[3]", "value": 100, "unit": "%"}, {"measurement": "kinase still bound, per cent of control", "setting": "[4]", "value": 100, "unit": "%"}, {"measurement": "kinase still bound, per cent of control", "setting": "[5]", "value": 69, "unit": "%"}, {"measurement": "kinase still bound, per cent of control", "setting": "[6]", "value": 20, "unit": "%"}, {"measurement": "kinase still bound, per cent of control", "setting": "[7]", "value": 100, "unit": "%"}, {"measurement": "kinase still bound, per cent of control", "setting": "[8]", "value": 22, "unit": "%"}, {"measurement": "kinase still bound, per cent of control", "setting": "[9]", "value": 17, "unit": "%"}, {"measurement": "kinase still bound, per cent of control", "setting": "[10]", "value": 10, "unit": "%"}, {"measurement": "kinase still bound, per cent of control", "setting": "[11]", "value": 29, "unit": "%"}, {"measurement": "kinase still bound, per cent of control", "setting": "[12]", "value": 100, "unit": "%"}, {"measurement": "kinase still bound, per cent of control", "setting": "[13]", "value": 100, "unit": "%"}, {"measurement": "kinase still bound, per cent of control", "setting": "[14]", "value": 0, "unit": "%"}, {"measurement": "kinase still bound, per cent of control", "setting": "[15]", "value": 81, "unit": "%"}, {"measurement": "kinase still bound, per cent of control", "setting": "[16]", "value": 100, "unit": "%"}, {"measurement": "kinase still bound, per cent of control", "setting": "[17]", "value": 77, "unit": "%"}, {"measurement": "kinase still bound, per cent of control", "setting": "[18]", "value": 4.3, "unit": "%"}, {"measurement": "kinase still bound, per cent of control", "setting": "[19]", "value": 54, "unit": "%"}, {"measurement": "kinase still bound, per cent of control", "setting": "[20]", "value": 78, "unit": "%"}, {"measurement": "kinase still bound, per cent of control", "setting": "[21]", "value": 93, "unit": "%"}, {"measurement": "kinase still bound, per cent of control", "setting": "[22]", "value": 5.6, "unit": "%"}, {"measurement": "kinase still bound, per cent of control", "setting": "[23]", "value": 0.55, "unit": "%"}, {"measurement": "kinase still bound, per cent of control", "setting": "[24]", "value": 1, "unit": "%"}, {"measurement": "kinase still bound, per cent of control", "setting": "[25]", "value": 3, "unit": "%"}, {"measurement": "kinase still bound, per cent of control", "setting": "[26]", "value": 0.35, "unit": "%"}, {"measurement": "kinase still bound, per cent of control", "setting": "[27]", "value": 25, "unit": "%"}, {"measurement": "kinase still bound, per cent of control", "setting": "[28]", "value": 4.6, "unit": "%"}, {"measurement": "kinase still bound, per cent of control", "setting": "[29]", "value": 99, "unit": "%"}, {"measurement": "kinase still bound, per cent of control", "setting": "[30]", "value": 84, "unit": "%"}, {"measurement": "kinase still bound, per cent of control", "setting": "[31]", "value": 100, "unit": "%"}, {"measurement": "kinase still bound, per cent of control", "setting": "[32]", "value": 87, "unit": "%"}, {"measurement": "kinase still bound, per cent of control", "setting": "[33]", "value": 31, "unit": "%"}, {"measurement": "kinase still bound, per cent of control", "setting": "[34]", "value": 0.1, "unit": "%"}, {"measurement": "kinase still bound, per cent of control", "setting": "[35]", "value": 0.15, "unit": "%"}, {"measurement": "kinase still bound, per cent of control", "setting": "[36]", "value": 100, "unit": "%"}, {"measurement": "kinase still bound, per cent of control", "setting": "[37]", "value": 32, "unit": "%"}, {"measurement": "kinase still bound, per cent of control", "setting": "[38]", "value": 6.2, "unit": "%"}, {"measurement": "kinase still bound, per cent of control", "setting": "[39]", "value": 90, "unit": "%"}, {"measurement": "kinase still bound, per cent of control", "setting": "[40]", "value": 100, "unit": "%"}, {"measurement": "kinase still bound, per cent of control", "setting": "[41]", "value": 3.8, "unit": "%"}, {"measurement": "kinase still bound, per cent of control", "setting": "[42]", "value": 82, "unit": "%"}]}, {"compound": "CCN1CCN(Cc2ccc(NC(=O)c3ccc(C)c(Oc4ccnc5[nH]ccc45)c3)cc2C(F)(F)F)CC1", "values": [{"measurement": "kinase still bound, per cent of control", "setting": "[9]", "value": 8.4, "unit": "%"}, {"measurement": "kinase still bound, per cent of control", "setting": "[11]", "value": 2.4, "unit": "%"}, {"measurement": "kinase still bound, per cent of control", "setting": "[14]", "value": 5.1, "unit": "%"}, {"measurement": "kinase still bound, per cent of control", "setting": "[15]", "value": 1.8, "unit": "%"}, {"measurement": "kinase still bound, per cent of control", "setting": "[19]", "value": 12, "unit": "%"}, {"measurement": "kinase still bound, per cent of control", "setting": "[22]", "value": 0.7, "unit": "%"}, {"measurement": "kinase still bound, per cent of control", "setting": "[25]", "value": 2.4, "unit": "%"}, {"measurement": "kinase still bound, per cent of control", "setting": "[26]", "value": 0.1, "unit": "%"}, {"measurement": "kinase still bound, per cent of control", "setting": "[34]", "value": 1.1, "unit": "%"}, {"measurement": "kinase still bound, per cent of control", "setting": "[35]", "value": 1, "unit": "%"}, {"measurement": "kinase still bound, per cent of control", "setting": "[38]", "value": 4.6, "unit": "%"}, {"measurement": "kinase still bound, per cent of control", "setting": "[39]", "value": 14, "unit": "%"}, {"measurement": "kinase still bound, per cent of control", "setting": "[41]", "value": 0.15, "unit": "%"}]}]}
